Where two headings read alike, the source gives them in different places.
Key:
[1] = molecular target: human CMV DNA polymerase UL54 (Human cytomegalovirus (strain AD169) (HHV-5) (Human herpesvirus 5), UniProt P08546); experiment: CMV polymerase biochemical assay (molecular beacon-based)
Method: (§1) Both human CMV DNA polymerase UL54 and human HSV DNA polymerase UL30 were produced as N-terminal MBP fusion of the full length, wild type recombinant proteins in order to enhance soluble expression in insect cell expression system. The proteins were expressed in sf9 insect cells via baculovirus transduction and cells were harvested after 48 hours. The soluble proteins were purified using the standard Ni-IMAC purification strategy via the N-terminal hexa-Histidine tag, followed by heparin affinity chromatography. Both of the final MBP fusion proteins were more than 90% pure and the yield of UL54 was up to 1.8 mg per liter culture while UL30 was up to 15 mg per liter culture. All purification steps were performed on ice, with buffers chilled on ice and FPLC fraction collectors set at 6° C. […] UL30 protein was stored in buffer containing 20 mM HEPES, pH7.0, 420 mM NaCl, 20% glycerol, 6 mM Imidazole, and 0.8 mM DTT at−80° C.
(§2) DNA polymerase activity was measured using a molecular beacon-based assay, as described in Ma et. al.
(§3) 100 pM CMV polymerase or 625 pM HSV polymerase was added to a buffer containing 20 mM Tris, pH=7.5, 100 mM NaCl, 10 mM MgCl2, 0.01% Tween-20, 0.5 mM EDTA, 10% Sucrose and 1 mM DTT. The inhibitor was pre-incubated with the polymerase for 30 minutes at room temperature. Reactions were initiated by the addition of a mixture containing 1.25 uM dATP, 1.25 uM dCTP, 1.25 uM dTTP, 1.25 uM dGTP, 200 nM Primer B (5′-GAC GGG AAG-3′5′-GAC GGG AAG-3′) and 100 nM molecular beacon (5′-5,6-FAM-CCTCTCCGTGTCTTGTACTTCCCGTCAGAGAGG-BHQ1-3′). For human CMV polymerase the reactions were incubated for 60 minutes at room temperature. For HSV polymerase the reactions were incubated for 20 minutes at room temperature. The reactions were then read on a Perkin-Elmer EnVision 2101 reader (fluorescence) using an excitation of 480 nm and emission of 535 nm. 1050s were determined using an internal Novartis software (Helios).
as §3, with “nm.” for “nm. 1050s were determined using an internal Novartis software (Helios).”

[2] = molecular target: human HSV DNA polymerase UL30 (Human herpesvirus 1 (strain 17) (HHV-1) (Human herpes simplex virus 1), UniProt P04293); experiment: HSV polymerase biochemical assay (molecular beacon-based)
Method: as §1, §2, §3
as §3, with “nm.” for “nm. 1050s were determined using an internal Novartis software (Helios).”

[3] = test system: Luciferase-encoding HCMV, AD169 strain; experiment: CMV Luciferase assay (cellular herpesvirus replication); type: cell-based
Method: For all viral assays, 10 mM DMSO stock compound solutions were serially diluted in DMSO at 3.16 fold dilutions in 96-well clear round bottom plates. Compounds were then diluted in assay media at 1:20 and subsequently 10 μL of these dilutions were added to cells for final compound concentrations ranging either from 0.0159 μM to 50 μM in 0.5% DMSO/assay media, or from 0.00318 to 10 μM in 0.5% DMSO/assay media.
The assay uses a Luciferase-encoding HCMV. Luciferase is expressed under the control of a late viral gene (pp28) promoter in the AD169 strain, so that expression of the reporter is dependent on viral DNA replication. Compounds that affect any stage from viral entry to DNA replication result in a change in luciferase levels.
Viral replication in the presence or absence of compounds was measured by luciferase activity according to the following procedure: Neo-natal normal human dermal fibroblast cells (NN-NHDF, from ATCC cat #201-010) were seeded at 9,000 cells/well in 96-well white solid bottom plate at 80 uL/well in assay media: 2% FBS, 4 mM GlutaMax® (Invitrogen cat #35050) in DMEM/high glucose/no glutamine/no phenol red media (Invitrogen cat #31053). After 2 hrs at 37° C., 10 uL of compound diluted in assay media or 5% DMSO (final 0.5% DMSO/well) was added and the plates returned to 37° C. One hour later, 10 uL of virus diluted in assay media was added at a final Multiplicity of infection (MOI) of 1. Plates were incubated at 37° C. for 72 hrs. At 72 hours post-infection (hpi), plates were equilibrated to room temperature. After 25 min, 100 uL Renilla-Glo® Luciferase Assay Reagent (Promega cat # E2750) was added to each well and incubated for 10 min. Plates were covered to protect from light. Luminescence was measured on the PHERAstar FS®.
The following controls were included in the data analysis: No virus, no compound (0.5% DMSO)=IC (maximal inhibitory control); Virus, no compound (0.5% DMSO)=NC (neutral control). Data were analyzed using an internal Novartis software (Helios). The means of the controls (NC, IC) were used to normalize the results to a % scale using the formula: % Control=100−(100*(Sample value−NC)/(IC−NC)).
For each compound, the software derived an EC50 using a 4-parameter logistical model.

[4] = Human betaherpesvirus 5, AD169, read-out: CMV-Luc Cellular EC50

Structure (SMILES) | IC50 [1] [nM] | IC50 [2] [nM] | EC50 [3, 4] [nM] | EC50 ([3]; read-out: CMV-Luc Cellular EC50) [nM]
N#Cc1ccc(CNC(=O)c2ccc3n(c2=O)CCN(CC2(S(=O)(=O)C4CC4)CC2)C3=O)cc1F [Example 3-1] | 0.8 | 38.1 | 17.7 | 
N#Cc1ccc(CNC(=O)c2ccc3n(c2=O)CCN(CC2(S(=O)(=O)C4CC(F)(F)C4)CC2)C3=O)cc1 [Example 83, N-(4-cyanobenzyl)-2-((1-((3,3-difluorocyclobutyl)sulfonyl)cyclopropyl)methyl)-1,6-dioxo-2,3,4,6-tetrahydro-1H-pyrido[1,2-a]pyrazine-7-carboxamide] | 4.4 | 101 | 146 | 
CCc1cc(C(=O)NCc2ccc(Cl)cc2)c(=O)n2c1C(=O)N(CCN(C)S(C)(=O)=O)CC2 [Example 134, N-(4-chlorobenzyl)-9-ethyl-2-(2-(N-methylmethylsulfonamido)ethyl)-1,6-dioxo-1,3,4,6-tetrahydro-2H-pyrido[1,2-a]pyrazine-7-carboxamide] | 268 | 2120 | 2870 | 
CN(C(C)(C)C)S(=O)(=O)C1(CN2CCn3c(ccc(C(=O)NCc4ccc(C#N)cc4)c3=O)C2=O)CC1 [Example 75-1] | 1.1 | 45.9 | 35.6 | 
N#Cc1ccc(CNC(=O)c2ccc3n(c2=O)CCN(CC2(S(=O)(=O)C4CCCC4)CC2)C3=O)cc1 [Example 22] | 1.9 | 56.3 | 88.8 | 
CC(C)(CO)S(=O)(=O)C1(CN2CCn3c(ccc(C(=O)NCc4ccc(C#N)nc4)c3=O)C2=O)CC1 [Example 183] | 2.9 | 36.7 | 145 | 
CS(=O)(=O)C1(CN2CCn3c(ccc(C(=O)NCC4CCC5(CC4)CC5)c3=O)C2=O)CC1 [Example 42] | 43.2 | 12800 | 7490 | 
CN(C)S(=O)(=O)C1(CN2CCn3c(ccc(C(=O)NCc4ccc(Cl)cc4)c3=O)C2=O)CC1 [Example 90-1, N-(4-chlorobenzyl)-2-((1-(N,N-dimethylsulfamoyl)cyclopropyl)methyl)-1,6-dioxo-2,3,4,6-tetrahydro-1H-pyrido[1,2-a]pyrazine-7-carboxamide] | 0.4 | 12.3 | 13.4 | 
CN(CCN1CCn2c(ccc(C(=O)NCc3ccc(Cl)cc3)c2=O)C1=O)S(=O)(=O)C1CC1 [Example 60] | 124 | 888 | 1250 | 
O=C(NCc1ccc(Cl)cc1)c1ccc2n(c1=O)CCN(CC1(S(=O)(=O)C3CCOCC3)CC1)C2=O [Example 105-1, N-(4-chlorobenzyl)-1,6-dioxo-2-((1-((tetrahydro-2H-pyran-4-yl)sulfonyl)cyclopropyl)methyl)-2,3,4,6-tetrahydro-1H-pyrido[1,2-a]pyrazine-7-carboxamide] | 1.5 | 39.7 | 50.1 | 
COc1cc(CNC(=O)c2ccc3n(c2=O)CCN(CC2(S(=O)(=O)C4CC4)CC2)C3=O)ccc1Cl [Example 3-5] | 2 | 117 | 211 | 
Cc1cc(C(=O)NCc2ccc(Cl)cc2)c(=O)n2c1C(=O)N(CC1(S(C)(=O)=O)CC1)CC2 [Example 86-3] | 1.8 | 45.3 |  | 34.6
N#Cc1ccc(CNC(=O)c2ccc3n(c2=O)CCN(CC2(S(=O)(=O)C4CCNC4)CC2)C3=O)cc1 (stereo not drawn) [Example 81-3] | 7 | 216 | 1190 | 
N#Cc1ccc(CNC(=O)c2ccc3n(c2=O)CCN(CC2(S(=O)(=O)C4COC4)CC2)C3=O)cc1 [Example 28] | 2.7 | 68.7 | 116 | 
N#Cc1ccc(CNC(=O)c2ccc3n(c2=O)CCN(CC2(S(=O)(=O)C4(C(F)F)CC4)CC2)C3=O)cc1 [Example 99-1] | 1 | 49.4 | 43.9 | 
O=C(NCc1ccc(Cl)cc1)c1ccc2n(c1=O)CCN(CC1(N3CCCS3(=O)=O)CC1)C2=O [Example 70, N-(4-chlorobenzyl)-2-((1-(1,1-dioxidoisothiazolidin-2-yl)cyclopropyl)methyl)-1,6-dioxo-2,3,4,6-tetrahydro-1H-pyrido[1,2-a]pyrazine-7-carboxamide] | 1.4 | 28.1 | 40.1 | 
CS(=O)(=O)C1(CN2CCn3c(ccc(C(=O)NCc4ccc(Cl)cc4)c3=O)C2=O)CC1 [Example 48] | 3 | 51.3 | 33.3 | 
CS(=O)(=O)C1(CN2CCn3c(ccc(C(=O)NCc4ncc(Cl)cn4)c3=O)C2=O)CC1 [Example 40] | 480 | 28300 | 10000 | 
CS(=O)(=O)C1(CN2CCn3c(ccc(C(=O)NCc4ccc(C#N)cc4)c3=O)C2=O)CC1 [Example 46] | 6 | 127 | 229 | 
CN(CCN1CCn2c(c(C#CCO)cc(C(=O)NCc3ccc(Cl)cc3)c2=O)C1=O)S(C)(=O)=O [Example 155, N-(4-chlorobenzyl)-9-(3-hydroxyprop-1-yn-1-yl)-2-(2-(N-methylmethylsulfonamido)ethyl)-1,6-dioxo-1,3,4,6-tetrahydro-2H-pyrido[1,2-a]pyrazine-7-carboxamide] | 201 | 1950 | 37200 | 
CS(=O)(=O)CCCN1CCn2c(c(Br)cc(C(=O)NCc3ccc(Cl)cc3)c2=O)C1=O [Example 123, 9-bromo-N-(4-chlorobenzyl)-2-(3-(methylsulfonyl)propyl)-1,6-dioxo-1,3,4,6-tetrahydro-2H-pyrido[1,2-a]pyrazine-7-carboxamide] | 373 | 1890 |  | 
CS(=O)(=O)CCCN1CCn2c(c(CF)cc(C(=O)NCc3ccc(Cl)cc3)c2=O)C1=O [Example 142] | 351 | 2160 |  | 
CCN1CCn2c(ccc(C(=O)NCc3ccc(Cl)cc3)c2=O)C1=O [Example 113, N-(4-chlorobenzyl)-2-ethyl-1,6-dioxo-2,3,4,6-tetrahydro-1H-pyrido[1,2-a]pyrazine-7-carboxamide] | 3130 | 23600 |  | 

Source: patent US12466821B2 (Novartis AG, priority 2018, dated 2025)
